Measurements reported in a compilation of properties of binary mixtures (doi:10.1016/j.jct.2015.07.015).

Assay: xn = mol fraction of the nth substance listed
Conditions: 101 kPa

C=CC[n+]1ccn(C)c1.[Cl-] + O
viscosity [mPa·s]
Conditions | 298.15 K | 303.15 K | 313.15 K | 323.15 K | 328.15 K | 333.15 K | 343.15 K | 353.15 K | 363.15 K | 373.15 K
x2 = 0.045 | 1884 | 1137 | – | 232 | 167 | 124 | 73 | 46.2 | 31.2 | 22.21
x2 = 0.091 | 1416 | 891 | 392 | 196 | 144 | – | 64.9 | 41.8 | – | 20.53
x2 = 0.126 | 1090 | 691 | – | 164 | 123 | 92 | 56.3 | – | – | –
x2 = 0.152 | 887 | 580 | 270 | 147 | 108 | 84 | 51.7 | 34.3 | 24 | 17.6
x2 = 0.193 | – | 459 | 221 | 121 | 91 | 71 | 45 | 30.4 | 21.6 | –
x2 = 0.267 | – | 293 | 151 | 86 | 67.1 | 53.1 | 35 | – | 17.7 | –
x2 = 0.335 | 259 | – | 101 | – | 48.6 | 39.3 | 26.8 | 19.2 | 14.26 | 10.98

CC(=O)[O-].CC[n+]1ccn(C)c1 + O
viscosity [mPa·s]
Conditions | 298.15 K | 303.15 K | 313.15 K | 323.15 K | 333.15 K | 343.15 K | 353.15 K | 363.15 K | 373.15 K
x2 = 0.072 | 124 | 92 | 55.4 | 35.4 | 24.3 | 17.63 | 13.21 | – | 8.19
x2 = 0.102 | 119 | 89 | 53.6 | 34.5 | 23.8 | 17.23 | – | – | 8.07
x2 = 0.132 | 112 | – | 51.1 | – | 22.9 | 16.73 | – | – | 7.86
x2 = 0.188 | 100 | 76 | – | 30.6 | – | 15.69 | – | 9.32 | –
x2 = 0.266 | – | 66 | 41.8 | 27.7 | – | 14.44 | 11 | 8.67 | 6.98
x2 = 0.355 | 75 | 58 | 36.9 | 24.8 | 17.7 | – | – | 8 | 6.47
